The values that follow are results of earlier work, collected in US20260174730A1, “A COMPOSITION FOR TREATING PARKINSON'S DISEASE” (COUNCIL OF SCIENTIFIC & INDUSTRIAL RESEARCH, priority 2023, published 2026).

The data set deals with oxygen-glucose deprivation in vitro.

With `C/C(=C\COc1ccc2ccc(=O)oc2c1)CC[C@@H]1C(C)(C)[C@H]2CC[C@]1(C)O2` [farnesiferol C], the neuroprotective activity result was “moderate neuroprotective activity”.
